Test results reported in US8134015B2, “Compound inhibiting in vivo phosphorous transport and medicine containing the same” (Kyowa Hakko Kirin Co., Ltd., priority 2003, dated 2012).
Structures can show the parent of a compound that is named as a salt.

Target: T1, rat NaPi-2b (Rattus norvegicus, UniProt Q9JJ09)
T1 construct: expressed in transfected cells; host or cells: Xenopus oocytes injected with cRNA
T1 sequence (Q9JJ09 1-695): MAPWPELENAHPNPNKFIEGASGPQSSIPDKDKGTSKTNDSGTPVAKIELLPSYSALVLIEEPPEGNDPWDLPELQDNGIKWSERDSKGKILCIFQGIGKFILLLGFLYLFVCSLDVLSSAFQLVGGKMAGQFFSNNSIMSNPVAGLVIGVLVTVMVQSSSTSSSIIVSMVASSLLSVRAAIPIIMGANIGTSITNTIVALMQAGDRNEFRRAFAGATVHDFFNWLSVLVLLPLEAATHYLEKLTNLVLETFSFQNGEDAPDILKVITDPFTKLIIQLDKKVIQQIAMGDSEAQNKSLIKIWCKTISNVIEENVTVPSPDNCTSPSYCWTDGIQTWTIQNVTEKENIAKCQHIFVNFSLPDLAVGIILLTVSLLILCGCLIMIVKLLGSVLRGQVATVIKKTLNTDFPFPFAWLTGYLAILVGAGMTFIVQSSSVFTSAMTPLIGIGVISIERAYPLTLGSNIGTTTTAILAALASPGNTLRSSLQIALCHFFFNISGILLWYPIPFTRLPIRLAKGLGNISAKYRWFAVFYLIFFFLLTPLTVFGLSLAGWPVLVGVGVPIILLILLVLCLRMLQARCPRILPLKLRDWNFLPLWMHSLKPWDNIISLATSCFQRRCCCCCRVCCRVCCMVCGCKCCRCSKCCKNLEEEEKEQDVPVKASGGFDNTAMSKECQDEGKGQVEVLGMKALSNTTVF
Test: Sodium-dependent phosphate uptake of Xenopus oocytes which expressed NaPi-2b (32P)
Format: cell-based
Conditions: for inhibition at 300 µM: phosphate uptake, oocytes expressing rat NaPi-2b, determined from inhibition curve; for IC50: Xenopus oocytes expressing rat NaPi-2b, 32P radioactive phosphorus, read-out: IC50 (phosphate uptake inhibitory activity)
Method in brief: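 Inhibition at 300 μM and 100 μM was read off one inhibition curve of 32P phosphate uptake. Uptake was measured in Xenopus oocytes cultured 2 days after injection of cRNA for cloned rat NaPi-2b.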

inhibition at 300 µM [%]	IC50 [µM]	SMILES
	10.1	Cc1ccc(/C=N/NC(=O)c2cscc2NC(=O)c2cccc(CN(CC(C)O)CC(C)O)c2)cc1C (stereo not shown) [Compound 977, 3-{[Bis-(2-hydroxy-propyl)-amino]-methyl}-N-[4-(3,4-dimethyl-benzylidene-hydrazinocarbonyl)-thiophen-3-yl]-benzamide]
	30.6	COc1cc(/C=N/NC(=O)c2cc(N3CCOCC3)ccc2NC(=O)c2ccc(OC)c(OC)c2)ccc1O [Compound 940, N-[2-(4-Hydroxy-3-methoxy-benzylidene-hydrazinocarbonyl)-4-morpholin-4-yl-phenyl]-3,4-dimethoxy-benzamide]
	69.4	CN(Cc1ccc(C(=O)Nc2ccc(Br)cc2C(=O)N/N=C/c2cccc(F)c2)cc1)CC(O)c1ccc(O)cc1 (stereo not shown) [Compound 725, N-[4-Bromo-2-(3-fluoro-benzylidene-hydrazinocarbonyl)-phenyl]-4-({[2-hydroxy-2-(4-hydroxy-phenyl)-ethyl]-methyl-amino}-methyl)-benzamide]
	54.3	Cc1ccc(/C=N/NC(=O)c2cc(Cl)ccc2NC(=O)c2cccc(CN(C)CCCN(C)Cc3cccc(C(=O)Nc4ccc(Cl)cc4C(=O)N/N=C/c4ccc(C)c(C)c4)c3)c2)cc1C [Compound 684, N1-[4-Chloro-2-({2-[(E)-1-(3,4-dimethylphenyl)methylidene]hydrazino}carbonyl}phenyl}-3-{[{3-[(3-{[4-chloro-2-({2-[(E)-1-(3,4-dimethylphenyl)methylidene]hydrazino}carbonyl}anilino}carbonyl}benzyl}(methyl)amino)propyl](methyl)amino)methyl)benzamide]
	< 10	O=C(Nc1sccc1C(=O)N/N=C/c1cccc(F)c1)c1cccc(CSCCCO)c1 [Compound 661, N-[3-(3-Fluoro-benzylidene-hydrazinocarbonyl)-thiophen-2-yl]-3-(3-hydroxy-propylsulfanylmethyl)-benzamide]
	12.9	COc1ccc(/C=N/NC(=O)c2c(C)csc2NC(=O)c2cccc(CN3CCC4(CC3)OCCO4)c2)cc1 [Compound 837, 3-(1,4-Dioxa-8-aza-spiro[4,5]dec-8-ylmethyl]-N-[3-(4-methoxy-benzylidene-hydrazinocarbonyl)-4-methyl-thiophen-2-yl]-benzamide]
	< 0.3	COc1ccc(/C=N/NC(=O)c2cc(N3CCCCC3)ccc2NC(=O)c2cccc(CN3CCc4nc5ncccc5cc4C3)c2)cc1 [Compound 898, 3-(7,8-Dihydro-5H-1,6,9-triaza-anthracen-6-ylmethyl)-N-[2-(4-methoxy-benzylidene-hydrazinocarbonyl)-4-piperidin-1-yl-phenyl]-benzamide]
	< 3	Cc1ccc(/C=N/NC(=O)c2c(C)csc2NC(=O)c2cccc(CN3CCC(CO)CC3)c2)cc1C [Compound 599, N-[3-(3,4-Dimethyl-benzylidene-hydrazinocarbonyl)-4-methyl-thiophen-2-yl]-3-(4-hydroxymethyl-piperidin-1-ylmethyl)-benzamide]
	1.02	Cc1cccc(/C=N/NC(=O)c2cc(Cl)ccc2NC(=O)c2cccc(CSc3nc[nH]n3)c2)c1 [Compound 391, N-[4-Chloro-2-(3-methyl-benzylidene-hydrazinocarbonyl)-phenyl]-3-(1H-[1,2,4]triazol-3-ylsulfanylmethyl)-benzamide]
	< 3	CCN(CC)CCNCc1cccc(C(=O)Nc2scc(C)c2C(=O)N/N=C/c2ccc(F)cc2)c1 [Compound 583, 3-[(2-Diethylamino-ethylamino)-methyl]-N-[3-(4-fluoro-benzylidene-hydrazinocarbonyl)-4-methyl-thiophen-2-yl]-benzamide]
	2.69	COc1ccc(/C=N/NC(=O)c2cc(N3CCOCC3)ccc2NC(=O)c2cccc(CSCCO)c2)cc1 [Compound 1066, 3-(2-Hydroxy-ethylsulfanylmethyl)-N-[2-(4-methoxy-benzylidene-hydrazinocarbonyl)-4-morpholin-4-yl-phenyl]-benzamide]
	1.72	COc1ccc(C(=O)Nc2scc(C)c2C(=O)N/N=C/c2ccc(C)cc2)cc1OC [Compound 519, 3,4-Dimethoxy-N-[4-methyl-3-(4-methyl-benzylidene-hydrazinocarbonyl)-thiophen-2-yl]-benzamide]
	2.58	CCN(CC)CCN(C)Cc1cccc(C(=O)Nc2sc3c(c2C(=O)N/N=C/c2ccc(OCCO)cc2)CCCC3)c1 [Compound 1002, 3-{[(2-Diethylamino-ethyl)-methyl-amino]-methyl}-N-{3-[4-(2-hydroxy-ethoxy)-benzylidene-hydrazinocarbonyl]-4,5,6,7-tetrahydro-benzo[b]thiophen-2-yl}-benzamide]
51.2		Cc1ccc(/C=N/NC(=O)c2c(C)csc2NC(=O)c2cccc(CSCCS(=O)(=O)O)c2)cc1C [Compound 781, 2-{3-[3-(3,4-Dimethyl-benzylidene-hydrazinocarbonyl)-4-methyl-thiophen-2-ylcarbamoyl]-benzylsulfanyl}-ethanesulfonic acid]
	0.31	Cc1csc(NC(=O)c2cccc(CSCCCO)c2)c1C(=O)N/N=C/c1ccc(Cl)c(C(F)(F)F)c1 [Compound 561, N-[3-(4-Chloro-3-trifluoromethyl-benzylidene-hydrazinocarbonyl)-4-methyl-thiophen-2-yl]-3-(3-hydroxy-propylsulfanylmethyl)-benzamide]
	< 3	Cc1ccc(/C=N/NC(=O)c2ccsc2NC(=O)c2cccc(CN(CC(C)O)CC(C)O)c2)cc1 (stereo not shown) [Compound 671, 3-{[Bis-(2-hydroxy-propyl)-amino]-methyl}-N-[3-(4-methyl-benzylidene-hydrazinocarbonyl)-thiophen-2-yl]-benzamide]

Second part, the compound before the results:

SMILES	inhibition at 300 µM [%]	IC50 [µM]
COc1ccc(C(=O)Nc2ccccc2C(=O)N/N=C/c2ccc(Br)cc2)cc1OC [Compound 234, N-[2-(4-Bromo-benzylidene-hydrazinocarbonyl)-phenyl]-3,4-dimethoxy-benzamide]	37.9	
O=C(Nc1ccccc1C(=O)N/N=C/c1ccccc1F)c1ccccc1 [Compound 225, N-[2-(2-Fluoro-benzylidene-hydrazinocarbonyl)-phenyl]-benzamide]		61
CCc1ccc(C(=O)Nc2ccc(Br)cc2C(=O)N/N=C/c2ccc(C)cc2)cc1 [Compound 181, N-[4-Bromo-2-(4-methyl-benzylidene-hydrazinocarbonyl)-phenyl]-4-ethyl-benzamide]		3.16
COc1ccc(/C=N/NC(=O)c2cc(Br)ccc2NC(=O)c2ccc(CN3CCN(CC(=O)N4CCOCC4)CC3)cc2)cc1 [Compound 307, N-[4-Bromo-2-(4-methoxy-benzylidene-hydrazinocarbonyl)-phenyl]-4-[4-(2-morpholin-4-yl-2-oxo-ethyl)-piperazin-1-ylmethyl]-benzamide]		41.2
Cc1cccc(/C=N/NC(=O)c2cc(Br)ccc2NC(=O)c2cccnc2)c1 [Compound 174, N-[4-Bromo-2-(3-methyl-benzylidene-hydrazinocarbonyl)-phenyl]-nicotinamide]		12.5
O=C(Nc1ccccc1C(=O)N/N=C/c1cccc(F)c1)c1cccnc1 [Compound 129, N-[2-(3-Fluoro-benzylidene-hydrazinocarbonyl)-phenyl]-nicotinamide]		13.7
COc1cc(OC)cc(C(=O)Nc2ccccc2C(=O)N/N=C/c2cccc(O)c2)c1 [Compound 58, N-[2-(3-Hydroxy-benzylidene-hydrazinocarbonyl)-phenyl]-3,5-dimethoxy-benzamide]		7.67
Cc1ccc(/C=N/NC(=O)c2cc(Br)ccc2NC(=O)c2ccc(CN3CCC(N4CCCCC4)CC3)cc2)cc1 [Compound 309, 4-[1,4′]Bipiperidinyl-1′-ylmethyl-N-[4-bromo-2-(4-methyl-benzylidene-hydrazinocarbonyl)-phenyl]-benzamide]		15.1
C/C(=N\NC(=O)c1cc(Cl)ccc1NC(=O)c1cccnc1)c1cccc(C)c1 [Compound 250, N-[4-Chloro-2-(1-m-toluyl-ethylidene-hydrazinocarbonyl)-phenyl]-nicotinamide]	37.9	
CCN(CC)CCN(C)Cc1cccc(C(=O)Nc2c(C)csc2C(=O)N/N=C/c2ccc(C)c(C)c2)c1 [Compound 342, 3-{[(2-Diethylamino-ethyl)-methyl-amino]-methyl}-N-[2-(3,4-dimethyl-benzylidene-hydrazinocarbonyl)-4-methyl-thiophen-3-yl]-benzamide]		32.6
Cc1ccc(/C=N/NC(=O)c2ccccc2NC(=O)c2ccncc2)cc1 [Compound 203, N-[2-(4-Methyl-benzylidene-hydrazinocarbonyl)-phenyl]-isonicotinamide hydrochloride]		< 3
COc1cccc(/C=N/NC(=O)c2cc(Cl)ccc2NC(=O)c2cccc(CN3CCC(N4CCCCC4)CC3)c2)c1 [Compound 374, 3-[1,4′]Bipiperidinyl-1′-ylmethyl-N-[4-chloro-2-(3-methoxy-benzylidene-hydrazinocarbonyl)-phenyl]-benzamide]		9.25
